Consider twelve molecules from patent US20240092773A1, “DIHYDRO-CYCLOPENTA-ISOQUINOLINE SULFONAMIDES DERIVATIVES” (UCB Biopharma SRL, priority 2019, published 2024).

Chain of IgE-Tb binding to soluble IgE receptor FcεR1α (Y131A mutation) (P01854 whole entry N146Q/N252Q, looked up): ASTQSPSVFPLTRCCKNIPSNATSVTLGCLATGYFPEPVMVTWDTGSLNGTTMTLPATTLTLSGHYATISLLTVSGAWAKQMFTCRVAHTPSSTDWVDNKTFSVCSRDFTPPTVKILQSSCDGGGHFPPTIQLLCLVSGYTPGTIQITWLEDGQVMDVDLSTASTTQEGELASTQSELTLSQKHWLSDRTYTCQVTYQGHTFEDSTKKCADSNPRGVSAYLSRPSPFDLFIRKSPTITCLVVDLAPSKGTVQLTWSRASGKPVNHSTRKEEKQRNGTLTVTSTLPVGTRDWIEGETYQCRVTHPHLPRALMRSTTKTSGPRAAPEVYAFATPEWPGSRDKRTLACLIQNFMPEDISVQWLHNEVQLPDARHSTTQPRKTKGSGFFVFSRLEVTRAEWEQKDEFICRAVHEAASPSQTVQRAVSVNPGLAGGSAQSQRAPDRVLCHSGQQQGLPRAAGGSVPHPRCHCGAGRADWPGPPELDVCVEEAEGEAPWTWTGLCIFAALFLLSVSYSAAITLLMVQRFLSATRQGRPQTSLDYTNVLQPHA

This assay has as its target IgE-Tb binding to soluble IgE receptor FcεR1α (Y131A mutation) (Homo sapiens, UniProt P01854, N146Q/N252Q). The experiment in a line: In vitro FRET assay: inhibition of binding of IgE-Tb to receptor FcεR1α-Y131A-AF488. Conditions: read-out: FRET IC50 range.
With `CC(C)CNS(=O)(=O)c1cc2c(c3cnc(C4CC4)cc13)C(Nc1nncn1-c1cccc3c1nnn3C)CC2` (stereo not drawn) [Example 2, 3-cyclopropyl-N-isobutyl-9-[[4-(1-methylbenzotriazol-4-yl)-1,2,4-triazol-3-yl]amino]-8,9-dihydro-7H-cyclopenta[h]isoquinoline-5-sulfonamide], the IC50 was in the range of 50 to 100 nM. As for `CC(C)CNS(=O)(=O)c1cc2c(c3cnc(C4CC4)cc13)C(F)CC2` (stereo not drawn) [Example 65, 3-cyclopropyl-9-fluoro-N-(2-methylpropyl)-8,9-dihydro-7H-cyclopenta[h]isoquinoline-5-sulfonamide], the 50% inhibitory concentration (IC50) lay in the range of 100 to 2000 nM.

`CC(C)(F)CNS(=O)(=O)c1cc2c(c3cnc(C4CC4)cc13)CC[C@H]2Nc1nccn1CC1CC1` (single isomer, unassigned) [Example 13, (7R*)-3-cyclopropyl-7-[[1-(cyclopropylmethyl)imidazol-2-yl]amino]-N-(2-fluoro-2-methylpropyl)-8,9-dihydro-7H-cyclopenta[h]isoquinoline-5-sulfonamide]: the half-maximal inhibitory concentration (IC50) was 100 to 2000 nM. As to `CC(C)(F)CNS(=O)(=O)c1cc2c(c3cnc(C4CC4)cc13)C(Oc1cccnc1)CC2` (stereo not drawn) [Example 93, 3-cyclopropyl-N-(2-fluoro-2-methylpropyl)-9-pyridin-3-yloxy-8,9-dihydro-7H-cyclopenta[h]isoquinoline-5-sulfonamide], the half-maximal inhibitory concentration (IC50) lay in the range of 100 to 2000 nM. The value for `Cc1cc(-n2cnnc2NC2CCc3c2cc(S(=O)(=O)NCC(C)C)c2cc(C4CC4)ncc32)n(C)n1` (stereo not drawn) [Example 88, 3-cyclopropyl-7-[[4-(2,5-dimethylpyrazol-3-yl)-1,2,4-triazol-3-yl]amino]-N-(2-methylpropyl)-8,9-dihydro-7H-cyclopenta[h]isoquinoline-5-sulfonamide] was 100 to 2000 nM; that for `CC(C)(F)CNS(=O)(=O)c1cc2c(c3cnc(C4CC4)cc13)CCC2c1cccnc1F` (stereo not drawn) [Example 11, 3-cyclopropyl-N-(2-fluoro-2-methylpropyl)-7-(2-fluoropyridin-3-yl)-8,9-dihydro-7H-cyclopenta[h]isoquinoline-5-sulfonamide] was 100 to 2000 nM; that for `CC(C)CNS(=O)(=O)c1cc2c(c3cnc(C4CC4)c(F)c13)CCC2` [Example 27, 3-cyclopropyl-4-fluoro-N-(2-methylpropyl)-8,9-dihydro-7H-cyclopenta[h]isoquinoline-5-sulfonamide] was 100 to 2000 nM.

For `CC(C)(F)CNS(=O)(=O)c1cc2c(c3cnc(C4CC4)cc13)CCC2(O)c1cccnc1` (stereo not drawn) [Example 10, 3-cyclopropyl-N-(2-fluoro-2-methylpropyl)-7-hydroxy-7-pyridin-3-yl-8,9-dihydrocyclopenta[h]isoquinoline-5-sulfonamide], the IC50 is 100 to 2000 nM. Regarding `CC(C)CNS(=O)(=O)c1cc2c(c3cnc(C4CC4)cc13)CCC2(C)O` (stereo not drawn) [Example 49, 3-cyclopropyl-7-hydroxy-7-methyl-N-(2-methylpropyl)-8,9-dihydrocyclopenta[h]isoquinoline-5-sulfonamide], the IC50 fell in the range of 100 to 2000 nM. Next, `Cc1ccc(N/C(=N\C#N)NC2CCc3cc(S(=O)(=O)NCC(C)C)c4cc(C5CC5)ncc4c32)cc1` (stereo not drawn) [Example 69, 2-cyano-1-[3-cyclopropyl-5-(2-methylpropylsulfamoyl)-8,9-dihydro-7H-cyclopenta[h]isoquinolin-9-yl]-3-(4-methylphenyl)guanidine]: 100 to 2000 nM; `CC(C)CNS(=O)(=O)c1cc2c(c3cnc(C4CC4)cc13)CCC2Nc1nc2ccccc2[nH]1` (stereo not drawn) [Example 92, 7-(1H-benzimidazol-2-ylamino)-3-cyclopropyl-N-(2-methylpropyl)-8,9-dihydro-7H-cyclopenta[h]isoquinoline-5-sulfonamide]: 10 to 50 nM; `CC(C)CNS(=O)(=O)c1cc2c(c3cnc(C4CC4)cc13)C(=O)CC2` [Example 63, 3-cyclopropyl-N-(2-methylpropyl)-9-oxo-7,8-dihydrocyclopenta[h]isoquinoline-5-sulfonamide]: 100 to 2000 nM.
